From patent US20090247559A1 (Exelixis, Inc., priority 2007, published 2009)
Where a name gives a salt, the structure may show the parent alone. Read-outs that look alike come from different tables or passages of the source.

What was measured:
CK2 = CK2 (Homo sapiens, UniProt P68400); experiment: CK2 inhibition, biochemical chemiluminescence holoenzyme assay (Kinase Glo, IC50 determination); conditions: Table 1 activity class; symbol given only if active; read-out: CK2 IC50 (Activity C)
Outline: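 Holoenzyme CK2 assay; compounds pre-incubated with substrate and enzyme, then reacted 150 min at 24-27° C. Remaining ATP measured as luminescence with Kinase Glo, and IC50 derived from the signal.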

CDC7 = CDC7 (Homo sapiens, UniProt O00311); experiment: CDC7 inhibition, biochemical chemiluminescence assay (Kinase Glo, IC50 determination)
Chain of CDC7 (O00311 whole entry): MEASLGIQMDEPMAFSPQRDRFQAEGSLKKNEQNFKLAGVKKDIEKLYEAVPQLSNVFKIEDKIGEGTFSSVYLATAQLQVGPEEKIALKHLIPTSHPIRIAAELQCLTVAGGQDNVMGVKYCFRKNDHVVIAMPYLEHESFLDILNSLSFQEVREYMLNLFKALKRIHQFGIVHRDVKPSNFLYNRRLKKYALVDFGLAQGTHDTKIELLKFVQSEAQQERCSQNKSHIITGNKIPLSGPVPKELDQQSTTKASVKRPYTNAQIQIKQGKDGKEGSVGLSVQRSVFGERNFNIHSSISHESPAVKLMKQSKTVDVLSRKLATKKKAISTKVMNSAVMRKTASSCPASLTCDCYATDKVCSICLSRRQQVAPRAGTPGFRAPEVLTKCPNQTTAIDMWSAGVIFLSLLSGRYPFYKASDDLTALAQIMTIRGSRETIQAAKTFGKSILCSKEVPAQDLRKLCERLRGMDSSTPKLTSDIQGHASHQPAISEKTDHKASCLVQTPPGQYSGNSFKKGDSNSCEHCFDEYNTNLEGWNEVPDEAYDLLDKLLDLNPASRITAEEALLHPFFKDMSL
Chain of CDC7 (Q9UBU7 whole entry partner): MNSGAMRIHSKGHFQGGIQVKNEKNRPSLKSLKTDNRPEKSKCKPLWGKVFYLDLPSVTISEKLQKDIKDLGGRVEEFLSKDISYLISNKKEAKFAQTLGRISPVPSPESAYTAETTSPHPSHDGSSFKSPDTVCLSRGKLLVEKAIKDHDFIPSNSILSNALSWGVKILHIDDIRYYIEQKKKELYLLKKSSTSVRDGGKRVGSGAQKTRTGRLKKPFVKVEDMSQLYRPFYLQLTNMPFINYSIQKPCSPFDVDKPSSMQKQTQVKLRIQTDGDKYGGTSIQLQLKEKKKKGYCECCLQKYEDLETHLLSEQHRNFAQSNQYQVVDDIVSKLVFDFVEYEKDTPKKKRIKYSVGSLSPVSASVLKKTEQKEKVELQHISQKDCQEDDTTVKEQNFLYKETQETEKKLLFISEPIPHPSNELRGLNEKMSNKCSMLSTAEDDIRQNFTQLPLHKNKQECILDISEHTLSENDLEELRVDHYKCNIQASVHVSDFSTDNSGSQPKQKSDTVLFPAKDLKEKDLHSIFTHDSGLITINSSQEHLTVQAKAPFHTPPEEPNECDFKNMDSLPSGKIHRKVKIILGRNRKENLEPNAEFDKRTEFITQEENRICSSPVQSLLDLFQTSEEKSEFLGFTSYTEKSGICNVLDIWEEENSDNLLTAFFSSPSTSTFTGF
Experimental: Characterization of CDC7 Inhibition in a Biochemical Chemiluminesence Assay (IC50 Determination):
The IC50 evaluation of compounds against the CDC7 enzyme was performed in a Chemiluminesence assay utilizing a Greiner 384-well white binding plate format. […] Upon addition of 10 μL of CDC-7 (GB) to the designated well plates and subsequent incubation for ten minutes at ambient temperature, 10 μL of ATP mix in Tris Base was added. Following an incubation period of 90 minutes at ambient temperature (24-27° C.), 20 μL of Kinase Glo (Promega) was added to measure kinase activity by quantitating the amount of ATP remaining in solution. The luminescence was measured following a Luciferase Protocol on either EnVision or Victor plate readers.

[1] = molecular target: PIM (PIM-1, PIM-2, and/or PIM-3); experiment: PIM-1, PIM-2 and PIM-3 inhibition, biochemical chemiluminescence assays (Kinase Glo, IC50 determination); conditions: Table 1 activity class; PIM refers to PIM-1, PIM-2, and/or PIM-3; read-out: PIM IC50 (Activity B)
[2] = Table 1 activity class, symbol given only if active, read-out: CDC7 IC50 (Activity A)
[3] = compounds in Table 1, read-out: CDC7 IC50 value

Chain of CK2 (P68400 whole entry): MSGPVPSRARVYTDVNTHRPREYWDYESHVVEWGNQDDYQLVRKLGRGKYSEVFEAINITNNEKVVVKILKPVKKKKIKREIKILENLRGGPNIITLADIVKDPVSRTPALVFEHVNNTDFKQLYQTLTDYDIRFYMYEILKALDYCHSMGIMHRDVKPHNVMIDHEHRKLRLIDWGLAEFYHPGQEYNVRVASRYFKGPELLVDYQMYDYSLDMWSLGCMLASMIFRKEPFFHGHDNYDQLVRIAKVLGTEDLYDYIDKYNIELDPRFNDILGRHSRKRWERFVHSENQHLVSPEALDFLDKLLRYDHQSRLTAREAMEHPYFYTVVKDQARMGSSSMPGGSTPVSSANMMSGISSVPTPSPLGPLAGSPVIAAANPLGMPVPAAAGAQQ
Chain of CK2 (P67870 whole entry partner): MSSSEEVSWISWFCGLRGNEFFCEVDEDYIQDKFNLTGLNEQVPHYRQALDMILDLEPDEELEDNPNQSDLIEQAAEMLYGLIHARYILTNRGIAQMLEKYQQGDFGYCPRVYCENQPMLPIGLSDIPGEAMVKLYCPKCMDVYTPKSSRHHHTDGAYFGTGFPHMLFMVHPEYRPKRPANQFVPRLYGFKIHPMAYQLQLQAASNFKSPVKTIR

IC50 (CK2) | IC50 (CDC7; [2]) | IC50 (CDC7; [3]) | IC50 [1] | SMILES
< 10 µM | < 10 µM | < 0.1 µM | < 10 µM | O=c1[nH]c(CN2CC[C@H](CO)C2)nc2c1oc1ccc(Br)cc12 [Compound 498, 8-bromo-2-{[(3S)-3-(hydroxymethyl)pyrrolidin-1-yl]methyl}[1]benzofuro[3,2-d]pyrimidin-4(3H)-one]
< 10 µM | < 10 µM | < 0.1 µM | < 10 µM | NC(c1ccccc1)c1nc2c(oc3ccc(Br)cc32)c(=O)[nH]1 (stereo not drawn) [Compound 174, 2-[amino(phenyl)methyl]-8-bromo[1]benzofuro[3,2-d]pyrimidin-4(3H)-one]
< 10 µM | < 10 µM | – | < 10 µM | O=C(Cc1cccnc1)Nc1ccc(-c2nc3c(oc4ccc(Br)cc43)c(=O)[nH]2)c(Cl)c1 [Compound 322, N-[4-(8-bromo-4-oxo-3,4-dihydro[1]benzofuro[3,2-d]pyrimidin-2-yl)-3-chlorophenyl]-2-pyridin-3-ylacetamide]
< 10 µM | < 10 µM | < 0.1 µM | < 10 µM | O=c1[nH]c([C@@H]2CC(F)(F)CN2)nc2c1oc1ccc(Br)cc12 [Compound 512, 8-bromo-2-[(2S)-4,4-difluoropyrrolidin-2-yl][1]benzofuro[3,2-d]pyrimidin-4(3H)-one]
< 10 µM | < 10 µM | – | < 10 µM | NCc1nc2c(oc3ccc(Br)cc32)c(=O)[nH]1 [Compound 195, 2-(aminomethyl)-8-bromo[1]benzofuro[3,2-d]pyrimidin-4(3H)-one]
< 10 µM | < 10 µM | – | < 10 µM | O=C(Nc1ccc(-c2nc3c(oc4ccc(Br)cc43)c(=O)[nH]2)c(Cl)c1)C1CCCNC1 (stereo not drawn) [Compound 140, N-[4-(8-bromo-4-oxo-3,4-dihydro[1]benzofuro[3,2-d]pyrimidin-2-yl)-3-chlorophenyl]piperidine-3-carboxamide]
< 10 µM | < 10 µM | < 0.1 µM | < 10 µM | CN(CCO)Cc1nc2c(oc3ccc(Br)cc32)c(=O)[nH]1 [Compound 401, 8-bromo-2-{[(2-hydroxyethyl)(methyl)amino]methyl}[1]benzofuro[3,2-d]pyrimidin-4(3H)-one]
< 10 µM | < 10 µM | – | < 10 µM | O=c1[nH]c([C@@H]2CSCN2)nc2c1oc1ccc(Br)cc12 [Compound 500, 8-bromo-2-[(4R)-1,3-thiazolidin-4-yl][1]benzofuro[3,2-d]pyrimidin-4(3H)-one]
< 10 µM | < 10 µM | < 0.1 µM | < 10 µM | O=c1[nH]c(CN2C[C@@H](O)[C@@H](O)C2)nc2c1oc1ccc(Br)cc12 [Compound 348, 8-bromo-2-{[cis-3,4-dihydroxypyrrolidin-1-yl]methyl}[1]benzofuro[3,2-d]pyrimidin-4(3H)-one]
< 10 µM | < 10 µM | < 0.1 µM | < 10 µM | NC1(c2nc3c(oc4ccc(Br)cc43)c(=O)[nH]2)CCCC1 [Compound 543, 2-(1-aminocyclopentyl)-8-bromo[1]benzofuro[3,2-d]pyrimidin-4(3H)-one]
< 10 µM | < 10 µM | – | < 10 µM | O=c1[nH]c(C[C@@H]2CCCNC2)nc2c1oc1ccc(Br)cc12 [Compound 305, 8-bromo-2-[(3S)-piperidin-3-ylmethyl][1]benzofuro[3,2-d]pyrimidin-4(3H)-one]
< 10 µM | < 10 µM | – | < 10 µM | COCC(=O)Nc1ccc(-c2nc3c(oc4ccc(Br)cc43)c(=O)[nH]2)c(Cl)c1 [Compound 319, N-[4-(8-bromo-4-oxo-3,4-dihydro[1]benzofuro[3,2-d]pyrimidin-2-yl)-3-chlorophenyl]-2-(methyloxy)acetamide]
< 10 µM | < 10 µM | – | < 10 µM | O=C(NCc1cccc(Cl)c1)C1CCN(Cc2nc3c(oc4ccc(Br)cc43)c(=O)[nH]2)C1 (stereo not drawn) [Compound 264, 1-[(8-bromo-4-oxo-3,4-dihydro[1]benzofuro[3,2-d]pyrimidin-2-yl)methyl]-N-[(3-chlorophenyl)methyl]pyrrolidine-3-carboxamide]
< 10 µM | < 10 µM | < 0.1 µM | < 10 µM | CC(C)(CN1CCCCC1)NCc1nc2c(oc3ccc(Br)cc32)c(=O)[nH]1 [Compound 191, 8-bromo-2-{[(1,1-dimethyl-2-piperidin-1-ylethyl)amino]methyl}[1]benzofuro[3,2-d]pyrimidin-4(3H)-one]
< 10 µM | < 10 µM | – | < 10 µM | CN(C)CCCC(=O)Nc1ccc(-c2nc3c(oc4ccc(Br)cc43)c(=O)[nH]2)c(Cl)c1 [Compound 160, N-[4-(8-bromo-4-oxo-3,4-dihydro[1]benzofuro[3,2-d]pyrimidin-2-yl)-3-chlorophenyl]-4-(dimethylamino)butanamide]
< 10 µM | < 10 µM | < 0.1 µM | < 10 µM | C[C@@H](N)c1nc2c(oc3ccc(Br)cc32)c(=O)[nH]1 [Compound 493, 2-[(1R)-1-aminoethyl]-8-bromo[1]benzofuro[3,2-d]pyrimidin-4(3H)-one]
< 10 µM | < 10 µM | < 0.1 µM | < 10 µM | O=c1[nH]c(Nc2cccnc2)nc2c1oc1ccc(Br)cc12 [Compound 214, 8-bromo-2-(pyridin-3-ylamino)[1]benzofuro[3,2-d]pyrimidin-4(3H)-one]
< 10 µM | < 10 µM | < 0.1 µM | < 10 µM | CN1CCC[C@H]1c1nc2c(oc3ccc(Br)cc32)c(=O)[nH]1 [Compound 527, 8-Bromo-2-[(2S)-1-methylpyrrolidin-2-yl][1]benzofuro[3,2-d]pyrimidin-4(3H)-one hydrochloride]
< 10 µM | < 10 µM | – | < 10 µM | COc1ccc(Br)c2oc3c(=O)[nH]c(CN4CC[C@H](O)C4)nc3c12 [Compound 428, 6-bromo-2-{[(3S)-3-hydroxypyrrolidin-1-yl]methyl}-9-(methyloxy)[1]benzofuro[3,2-d]pyrimidin-4(3H)-one]
< 10 µM | < 10 µM | < 0.1 µM | < 10 µM | O=c1[nH]c(CNCC(O)CO)nc2c1oc1ccc(Br)cc12 (stereo not drawn) [Compound 262, 8-bromo-2-{[(2,3-dihydroxypropyl)amino]methyl}[1]benzofuro[3,2-d]pyrimidin-4(3H)-one]
< 10 µM | < 10 µM | – | < 10 µM | O=C(N[C@@H]1CN(Cc2nc3c(oc4ccc(Br)cc43)c(=O)[nH]2)C[C@H]1O)C1CCNCC1 [Compound 388, N-{(3R,4R)-1-[(8-bromo-4-oxo-3,4-dihydro[1]benzofuro[3,2-d]pyrimidin-2-yl)methyl]-4-hydroxypyrrolidin-3-yl}piperidine-4-carboxamide]
< 10 µM | < 10 µM | < 0.1 µM | < 10 µM | CO[C@@H]1CCN(Cc2nc3c(oc4ccc(Br)cc43)c(=O)[nH]2)C1 [Compound 408, 8-bromo-2-{[(3R)-3-(methyloxy)pyrrolidin-1-yl]methyl}[1]benzofuro[3,2-d]pyrimidin-4(3H)-one]
< 10 µM | < 10 µM | < 0.1 µM | < 10 µM | O=c1[nH]c(CN2CCCC(F)C2)nc2c1oc1ccc(Br)cc12 (stereo not drawn) [Compound 317, 8-bromo-2-[(3-fluoropiperidin-1-yl)methyl][1]benzofuro[3,2-d]pyrimidin-4(3H)-one]
< 10 µM | < 10 µM | – | < 10 µM | O=c1[nH]c(-c2ccccc2I)nc2c1oc1ccc(Br)cc12 [Compound 40, 8-bromo-2-(2-iodophenyl)[1]benzofuro[3,2-d]pyrimidin-4(3H)-one]
< 10 µM | < 10 µM | – | < 10 µM | Cc1ccc(C(=O)Nc2ccc(-c3nc4c(oc5ccc(Br)cc54)c(=O)[nH]3)c(Cl)c2)cn1 [Compound 291, N-[4-(8-bromo-4-oxo-3,4-dihydro[1]benzofuro[3,2-d]pyrimidin-2-yl)-3-chlorophenyl]-6-methylpyridine-3-carboxamide]
< 10 µM | < 10 µM | – | < 10 µM | O=c1[nH]c(CNc2cccnc2)nc2c1oc1ccc(Br)cc12 [Compound 13, 8-bromo-2-[(pyridin-3-ylamino)methyl][1]benzofuro[3,2-d]pyrimidin-4(3H)-one]
< 10 µM | < 10 µM | – | < 10 µM | O=c1[nH]c(-c2ccncc2Br)nc2c1oc1ccc(Br)cc12 [Compound 43, 8-bromo-2-(3-bromopyridin-4-yl)[1]benzofuro[3,2-d]pyrimidin-4(3H)-one]
< 10 µM | < 10 µM | < 0.1 µM | < 10 µM | O=c1[nH]c([C@H]2CCCN2)nc2c1oc1ccc(Br)cc12 [Compound 471, 8-bromo-2-[(2R)-pyrrolidin-2-yl][1]benzofuro[3,2-d]pyrimidin-4(3H)-one]
< 10 µM | < 10 µM | < 0.1 µM | < 10 µM | COc1ccc2oc3c(=O)[nH]c([C@@H]4C[C@@H](F)CN4)nc3c2c1 [Compound 532, 2-[(2S,4R)-4-fluoropyrrolidin-2-yl]-8-(methyloxy)[1]benzofuro[3,2-d]pyrimidin-4(3H)-one]
